Assay results taken from patent publication US20200030202A1, “TWO-STEP TREATMENT FOR DESQUAMATION OF SKIN” (L'OREAL, priority 2018, published 2020).

Tested on: isolated human stratum corneum (SC)
Assay: DSC lipid disorganization (shift of melting transition temperatures) of treated stratum corneum
Settings: 15 minutes per treatment, 75% RH, RT
Experimental: Various compositions (alkaline versus acidic) and treatment protocols were tested and compared to determine which compositions and protocols produced the greatest degree of lipid disorganization, which is a common method for estimating the desquamation efficacy. All DSC experiments were performed on isolated human stratum corneum (SC). The SC was prepared using a standard protocol. Human abdominal skin remaining from plastic surgery was obtained in frozen form. Subcutaneous fat was removed and the dermis was separated from epidermis by plunging the skin into hot water (56° C.) for 1-2 min. The remaining viable epidermis was removed by tryptic digestion at 37° C. overnight. The SC was dried and stored at room temperature and ambient humidity. […]
The degree of lipid disorganization following treatment can be conveniently monitored by the shifts of the melting transition temperatures measured by Differential Scanning Calorimetry (DSC). […]
The maxima of the endothermic peaks corresponding to lipid phase transitions are determined using dedicated software (TA Universal Analysis). The peak position and the transition enthalpy are determined with respect to a manually defined linear baseline. […] The shifts of the melting peak positions (ΔTm(T2) and ΔTm(T3)) are calculated with respect to reference thermogrammes obtained with untreated or vehicle-treated samples. […]

## O=C(O)CO [70% GA, glycolic acid]
Example 3, ΔTeffective=0.7·ΔTm(T2)+0.3ΔTm(T3) vs untreated or vehicle-treated SC, 0.1 gram, decrease of 2° C. considered significant
  ΔT: −4.6
Example 4, same manner as Example 3, different alkaline agents
  ΔT: −7.1
